# Target: T1, human TLR7 (Homo sapiens, UniProt Q9NYK1)
# T1 sequence (Q9NYK1 27-1049): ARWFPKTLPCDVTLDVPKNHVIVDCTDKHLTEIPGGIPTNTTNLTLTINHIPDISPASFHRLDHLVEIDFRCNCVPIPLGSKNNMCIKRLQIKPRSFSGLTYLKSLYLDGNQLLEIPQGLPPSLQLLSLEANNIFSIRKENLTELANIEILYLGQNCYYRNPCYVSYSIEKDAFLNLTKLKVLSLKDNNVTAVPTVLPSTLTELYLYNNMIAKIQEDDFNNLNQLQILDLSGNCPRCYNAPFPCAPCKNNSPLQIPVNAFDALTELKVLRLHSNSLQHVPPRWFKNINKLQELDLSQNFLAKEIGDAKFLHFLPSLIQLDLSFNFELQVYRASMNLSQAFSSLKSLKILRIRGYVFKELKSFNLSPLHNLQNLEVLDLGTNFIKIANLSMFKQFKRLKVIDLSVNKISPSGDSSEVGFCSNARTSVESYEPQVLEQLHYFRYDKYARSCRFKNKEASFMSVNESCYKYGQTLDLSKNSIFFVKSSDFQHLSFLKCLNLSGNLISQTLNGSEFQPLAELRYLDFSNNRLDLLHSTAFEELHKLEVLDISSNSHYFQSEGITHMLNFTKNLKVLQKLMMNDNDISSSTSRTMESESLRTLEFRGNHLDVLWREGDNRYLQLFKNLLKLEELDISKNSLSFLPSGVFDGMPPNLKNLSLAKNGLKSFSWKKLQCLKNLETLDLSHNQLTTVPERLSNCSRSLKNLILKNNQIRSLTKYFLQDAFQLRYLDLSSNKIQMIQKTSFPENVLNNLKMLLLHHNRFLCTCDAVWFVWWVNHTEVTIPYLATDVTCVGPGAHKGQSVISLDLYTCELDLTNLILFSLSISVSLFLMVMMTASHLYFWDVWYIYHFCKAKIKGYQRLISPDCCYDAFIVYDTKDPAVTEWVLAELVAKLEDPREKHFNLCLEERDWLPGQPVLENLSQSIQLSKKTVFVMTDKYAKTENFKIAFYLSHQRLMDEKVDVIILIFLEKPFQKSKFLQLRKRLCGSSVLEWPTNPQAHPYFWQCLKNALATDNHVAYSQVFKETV
# Assay: HEK293-Blue-hTLR-7 cells assay (SEAP reporter)
# Assay type: cell-based
# Details: 20 hours incubation
# Excerpt: A stable HEK293-Blue-hTLR-7 cell line was purchased from InvivoGen (Cat.#: hkb-ht1r7, San Diego, Calif., USA). These cells were designed for studying the stimulation of human TLR7 by monitoring the activation of NF-κB. A SEAP (secreted embryonic alkaline phosphatase) reporter gene was placed under the control of the IFN-β minimal promoter fused to five NF-κB and AP-1-binding sites. The SEAP was induced by activating NF-κB and AP-1 via stimulating HEK-Blue hTLR7 cells with TLR7 ligands. Therefore the reporter expression was regulated by the NF-κB promoter upon stimulation of human TLR7 for 20 hours. The cell culture supernatant SEAP reporter activity was determined using QUANTI-Blue™ kit (Cat.#: rep-qb1, Invivogen, San Diego, Calif., USA) at a wavelength of 640 nm, a detection medium that turns purple/blue in the presence of alkaline phosphatase.
# HEK293-Blue-hTLR7 cells were incubated at a density of 250,000˜450,000 cells/mL in a volume of 180 μL in a 96-well plate in Dulbecco's Modified Eagle's medium (DMEM) containing 4.5 g/L glucose, 50 U/mL penicillin, […] streptomycin, […] Normocin, 2 mM L-glutamine, 10% (v/v) heat-inactivated fetal bovine serum for 24 h. Then the HEK293-Blue-hTLR-7 cells were incubated with addition of 20 μL test compound in a serial dilution in the presence of final DMSO at 1% and perform incubation under 37° C. in a CO2 incubator for 20 hours. Then 20 μL of the supernatant from each well was incubated with 180 μL Quanti-blue substrate solution at 37° C. for 2 h and the absorbance was read at 620˜655 nm using a spectrophotometer. The signalling pathway that TLR7 activation leads to downstream NF-κB activation has been widely accepted, and therefore similar reporter assay was also widely used for evaluating TLR7 agonist (Tsuneyasu Kaisho and Takashi Tanaka, Trends in Immunology, Volume 29, Issue 7, July 2008, […]; Hiroaki Hemmi et al, Nature Immunology 3, 196-200 (2002).
row,SMILES,EC50 [µM]
1,"Nc1nc2c(sc(=O)n2[C@H]2CS[C@@H](C(O)C#CC3CC3)O2)c(=O)[nH]1 (single isomer, unassigned) [Example 14-A]",54.3
2,"CCCC(O)[C@H]1O[C@@H](n2c(=O)sc3c(=O)[nH]c(N)nc32)CS1 (single isomer, unassigned) [Example 9-B]",160
3,"Nc1nc2c(sc(=O)n2C2CSC(CO)O2)c(=O)[nH]1 (stereo not shown) [Example 1, 5-Amino-3-[2-(hydroxymethyl)-1,3-oxathiolan-5-yl]-6H-thiazolo[4,5-d] pyrimidine-2,7-dione]",97
4,"C[C@@H]1S[C@@H](C(O)C2CC2)OC1n1c(=O)sc2c(=O)[nH]c(N)nc21 (single isomer, unassigned) [Example 23-B]",31.5
5,"C#CC(O)[C@H]1O[C@@H](n2c(=O)sc3c(=O)[nH]c(N)nc32)CS1 (single isomer, unassigned) [Example 15-A]",16.7
6,"CC#CC(O)[C@H]1O[C@@H](n2c(=O)sc3c(=O)[nH]c(N)nc32)CS1 (single isomer, unassigned) [Example 10-A]",7.6
7,"CC#CC(O)[C@H]1O[C@@H](n2c(=O)sc3c(=O)[nH]c(N)nc32)CS1 (single isomer, unassigned) [Example 10-B]",122
8,"Nc1nc2c(sc(=O)n2[C@H]2CS[C@@H](C(O)c3cccs3)O2)c(=O)[nH]1 (single isomer, unassigned) [Example 20-A]",33.9
9,"CC#CC(OC(C)=O)[C@H]1O[C@@H](n2c(=O)sc3c(=O)[nH]c(N)nc32)CS1 (single isomer, unassigned) [Example 13-A]",151
10,"CC(=O)OC(C1CC1)[C@H]1O[C@@H](n2c(=O)sc3c(=O)[nH]c(N)nc32)CS1 (single isomer, unassigned) [Example 7-A]",61.7
11,"CC(C)CC(O)[C@H]1O[C@@H](n2c(=O)sc3c(=O)[nH]c(N)nc32)CS1 (single isomer, unassigned) [Example 17-B]",93.6
12,"CCCCC(O)[C@H]1O[C@@H](n2c(=O)sc3c(=O)[nH]c(N)nc32)CS1 (single isomer, unassigned) [Example 19-A]",32.9
13,"C[C@@H]1S[C@@H](C(O)C2CC2)OC1n1c(=O)sc2c(=O)[nH]c(N)nc21 (single isomer, unassigned) [Example 23-A]",4.5
14,"CC(O)[C@H]1O[C@@H](n2c(=O)sc3c(=O)[nH]c(N)nc32)CS1 (single isomer, unassigned) [Example 16-A]",46.5
15,"Nc1nc2c(sc(=O)n2[C@H]2CS[C@@H](C(O)C3CC3)O2)c(=O)[nH]1 (single isomer, unassigned) [Example 4-B]",306
16,"CC(C)CC(O)[C@H]1O[C@@H](n2c(=O)sc3c(=O)[nH]c(N)nc32)CS1 (single isomer, unassigned) [Example 17-A]",63.3
17,"C[C@@H]1S[C@@H](CO)OC1n1c(=O)sc2c(=O)[nH]c(N)nc21 (single isomer, unassigned) [Example 21-A]",53.9
18,"C=CCC1SC(CO)OC1n1c(=O)sc2c(=O)[nH]c(N)nc21 (single isomer, unassigned) [Example 25-A, 3-[4-Allyl-2-(hydroxymethyl)-1,3-oxathiolan-5-yl]-5-amino-6H-thiazolo[4,5-d]pyrimidine-2,7-dione]",178
19,"CCCC(O)[C@H]1O[C@@H](n2c(=O)sc3c(=O)[nH]c(N)nc32)CS1 (single isomer, unassigned) [Example 9-A]",10
20,"C=CCC(O)[C@H]1O[C@@H](n2c(=O)sc3c(=O)[nH]c(N)nc32)CS1 (single isomer, unassigned) [Example 18-A]",29
21,"CC[C@H](O)C1OC(n2c(=O)sc3c(=O)[nH]c(N)nc32)[C@H](C)S1 (single isomer, unassigned) [Example 22-A]",4.7
22,"CCC(O)[C@H]1O[C@@H](n2c(=O)sc3c(=O)[nH]c(N)nc32)CS1 (single isomer, unassigned) [Example 8-A]",16.5
23,"CC#CC(O)C1OC(n2c(=O)sc3c(=O)[nH]c(N)nc32)[C@H](C)S1 (single isomer, unassigned) [Example 24-A]",10.1
24,"Nc1nc2c(sc(=O)n2[C@H]2CS[C@@H](CO)O2)c(=O)[nH]1 [Example 2-A, 5-amino-3-[(2S,5R)-2-(hydroxymethyl)-1,3-oxathiolan-5-yl]-6H-thiazolo[4,5-d]pyrimidine-2,7-dione]",125

# Tested on: AAV-HBV
# Assay: In vivo antiviral efficacy in AAV-HBV mouse model
# Design: species or system C57BL/6 mice
# Details: 30 mg/kg PO QOD, after the 6-week treatment, mouse serum
# Method: Example 6-A was evaluated for its in vivo antiviral efficacy using an AAV-HBV mouse model. This mouse model for HBV infection was generated by injecting C57BL/6 mice with a recombinant adeno-associated virus (AAV) carrying a replicable HBV (hepatitis B virus) genome (AAV-HBV). In 3 weeks post infection, high levels of HBV viral markers, such as HBV genomic DNA and HBsAg (HBV surface antigen), was detected in the sera of infected mice. With persistent HBV viremia and fully competent immune system, the AAV-HBV model is suitable for investigating the in vivo efficacy of Example 6-A.
# To establish the AAV-HBV model, a total of fifteen 4-week old male C57BL/6 mice, specific pathogen free, were purchased from Shanghai Laboratory Animal Center of Chinese Academy of Sciences (SLAC) and housed in an animal care facility in individually ventilated cages under controlled temperature and light conditions following the Institutional Animal Care guidelines. AAV-HBV virus stock was available from Beijing FivePlus Molecular Medicine Institute (Beijing, China). C57BL/6 mice were injected with 200 μL of recombinant virus in saline buffer through tail vein injection. The mice were bled on day 14 post injection to monitor HBsAg, HBeAg, and HBV genomic DNA in serum. On day 29 post injection, the fifteen mice were randomly recruited into 3 groups based on their HBV biomarker levels, and started to receive treatments, as shown in Table 3.
# Mice in group 1 were treated with vehicle placebo (2% Klucel LF, 0.1% Polysorbate 80, and 0.1% Parabens in water); mice in group 2 and 3 were treated with Example 6-A at 30 mg/kg and 100 mg/kg respectively, every other day (QOD). All the mice were orally dosed for a total of 6 weeks. Serum samples were collected twice a week to monitor HBV biomarkers. Serum HBsAg was measured using CLIA kits (Autobio Diagnostics Co., Ltd, Zhengzhou, China) according to the manufacturer's instructions. The lower limit of detection for HBsAg was 0.1 ng/mL. Serum dilution of 500-fold (for HBsAg) was used to obtain values within the linear range of the standard curve. Serum HBV DNA was extracted using a MagNA Pure 96 DNA and Viral NA Small Volume Kit (Roche) following the manufacturer's instructions. The DNA samples were analyzed by real-time quantitative PCR (qPCR) using a HBV-specific primer and probe set for specific amplification and detection of a 128 bp HBV genome region from the nucleotide 2969 to 3096.
SMILES,reduction in HBV DNA,reduction in HBsAg [log]
"CC(=O)OC(C1CC1)[C@H]1O[C@@H](n2c(=O)sc3cnc(N)nc32)CS1 (single isomer, unassigned) [Example 6-A]",more than 2 log,0.8

# Same assay, conditions: 100 mg/kg PO QOD, at the end of the treatment (6 weeks), mouse serum
SMILES,reduction in HBV DNA,reduction in HBsAg [log]
"CC(=O)OC(C1CC1)[C@H]1O[C@@H](n2c(=O)sc3cnc(N)nc32)CS1 (single isomer, unassigned) [Example 6-A]",more than 3 log,2.4
